Measurements: patent US5292737A, “N,N'-bis(sulfonamido)-2-amino-4-iminonaphthalen-1-ones and N,N'-bis(amido)-2-amino-4-iminonaphthalen-1-ones” (Sphinx Pharmaceuticals Corporation, priority 1992, dated 1994)

What was measured:
PKC isoenzyme α = target: T1, PKC isoenzyme α (Homo sapiens, UniProt P17252); assay: Protein kinase C inhibition assay, PKC isoenzyme α; assay type: biochemical; details: read-out: IC50 PKC α
T1 construct: made in house; host or cells: baculovirus-insect cell expression system
Experimental: (§1) A protein kinase C (PKC) assay is designed to duplicate the in vivo conditions required for protein kinase C function. Therefore, pH, salt and cofactor concentrations are similar to physiologic levels. Either lysine rich histone H1 (H1) or Myelin basic protein (Mbp) are used in the assay as the phosphorylation acceptor-protein because they are readily available and serve as good substrates for protein kinase C. Enzyme was prepared from baculovirus-insect cell expression systems.
(§2) In the screening assay, phosphatidylserine (PS) and DAG were co-sonicated to form unilamellar and multilamellar vesicles. The concentration of lipids in the assay were suboptimal to maximize the detection potential of the assay for inhibitors or activators. Potential effector compounds were added to the assay in dimethylsulfoxide at four concentrations to give final inhibitor concentrations of 1, 10, 50, and 150 μM, respectively.
(§3) The assay was started with the addition of enzyme and stopped after 10 min by the addition of 25% trichloroacetic acid (TCA) and 1.0 mg/ml bovine serum albumin (BSA). The radioactive histone product was retained and washed on glass fiber filters that allow the unreacted P-ATP to pass through. The amount of phosphorylation was determined by measuring radioactivity with a scintillation counter. Controls were included in every assay to measure background activity in the absence of enzyme, activity in the absence of lipids, and the maximum enzyme activity with saturating levels of the activator lipids.
(§4) Results of the protein kinase C assay are shown in Table 4 in columns labeled α, βII, γ, δ, ε, and .zeta. which represent various PKC isoenzymes. Results are show as IC50, which is the concentration of test compound needed to inhibit 50% of the protein kinase C activity in controls.

PKC isoenzyme βII = target: T2, PKC isoenzyme βII (Homo sapiens, UniProt P05771); assay: Protein kinase C inhibition assay, PKC isoenzyme βII; assay type: biochemical; details: read-out: IC50 PKC βII
T2 construct: made in house; host or cells: baculovirus-insect cell expression system
Experimental: as §1, §2, §3, §4

PKC isoenzyme γ = target: T3, PKC isoenzyme γ (Homo sapiens, UniProt P05129); assay: Protein kinase C inhibition assay, PKC isoenzyme γ; assay type: biochemical; details: read-out: IC50 PKC γ
T3 construct: made in house; host or cells: baculovirus-insect cell expression system
Experimental: as §1, §2, §3, §4

PKC isoenzyme δ = target: T4, PKC isoenzyme δ (Homo sapiens, UniProt Q05655); assay: Protein kinase C inhibition assay, PKC isoenzyme δ; assay type: biochemical; details: read-out: IC50 PKC δ
T4 construct: made in house; host or cells: baculovirus-insect cell expression system
Experimental: as §1, §2, §3, §4

PKC isoenzyme ε = target: T5, PKC isoenzyme ε (Homo sapiens, UniProt Q02156); assay: Protein kinase C inhibition assay, PKC isoenzyme ε; assay type: biochemical; details: read-out: IC50 PKC ε
T5 construct: made in house; host or cells: baculovirus-insect cell expression system
T5 sequence (Q02156 1-737): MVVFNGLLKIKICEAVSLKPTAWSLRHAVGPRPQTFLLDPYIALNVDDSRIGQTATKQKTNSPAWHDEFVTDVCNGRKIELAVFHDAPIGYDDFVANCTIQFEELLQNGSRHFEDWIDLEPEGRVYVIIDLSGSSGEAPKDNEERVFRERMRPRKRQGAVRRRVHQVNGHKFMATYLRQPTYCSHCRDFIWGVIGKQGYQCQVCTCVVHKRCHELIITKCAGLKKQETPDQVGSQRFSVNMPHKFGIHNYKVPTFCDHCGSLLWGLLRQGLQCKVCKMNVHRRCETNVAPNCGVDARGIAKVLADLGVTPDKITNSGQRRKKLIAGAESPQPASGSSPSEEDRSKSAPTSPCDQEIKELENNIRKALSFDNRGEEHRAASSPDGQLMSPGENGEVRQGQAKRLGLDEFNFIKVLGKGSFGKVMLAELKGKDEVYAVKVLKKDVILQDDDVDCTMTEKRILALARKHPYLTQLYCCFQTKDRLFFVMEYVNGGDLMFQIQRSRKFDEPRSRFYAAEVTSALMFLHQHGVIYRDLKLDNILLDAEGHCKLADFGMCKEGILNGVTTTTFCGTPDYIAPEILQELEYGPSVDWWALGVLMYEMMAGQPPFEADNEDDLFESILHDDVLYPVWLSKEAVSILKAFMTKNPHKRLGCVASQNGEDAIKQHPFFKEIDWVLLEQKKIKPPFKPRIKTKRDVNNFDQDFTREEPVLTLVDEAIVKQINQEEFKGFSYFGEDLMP
Experimental: as §1, §2, §3, §4

[1] = target: cAMP dependent protein kinase (PKA); assay: cAMP Dependent Protein Kinase (PKA) Assay; assay type: biochemical
Experimental: Compounds found to be inhibitors of protein kinase C were tested for inhibitory activity against cAMP dependent protein kinase (PKA). This enzyme, like protein kinase C, plays an important role in cell-cell communication and is activated by a second messenger, cAMP. Secondary screening against PKA is useful for ascertaining the selectivity of the compounds of the invention.
The catalytic subunit of PKA (Sigma Chemical Company, St. Louis, Mo.) was mixed with buffer before addition of the inhibitor in dimethylsulfoxide (DMSO). Potential inhibitor compounds were added to the assay in dimethylsulfoxide at two concentrations to give final inhibitor concentrations of 30 and 150 μM, respectively. The assay was started by the addition of ^32 P-ATP and the reaction was allowed to proceed for 10 min before stopping with 25% trichloroacetic acid (TCA) and 1.0 mg/ml bovine serum albumin (BSA). Phosphorylated protein was then isolated by filtration and the radioactivity was counted by a beta scintillation counter.

[2] = test system: normal human epidermal keratinocyte (NHEK) cells; assay: Human Keratinocyte Inhibition (3H TdR Assay); assay type: cell-based; details: 24 h incubation, 3H-thymidine
Experimental: Proliferating normal human epidermal keratinocyte (NHEK) cells were obtained in the second passage and grown in keratinocyte growth medium, KGM (Clonetics, Inc.) at 37° C., 5% CO2. The cells were trypsinized (0.25%), centrifuged, counted with a hemocytometer, and seeded at a concentration of 5000 cells in 100 μl well in a 96-well microtiter plate.
After the cells were allowed to attach to the microtiter plate overnight, test agents were titrated to determine the dose response. This was done by adding each test agent dilution in quadruplicate to the plate at 2× final concentration in 100 μl to bring the total volume of each well to 200 μl. Culture media with no test agent added was used as a normal control. Duplicate sets of plates were established.
After twenty-four hours of incubation with test compounds 37° C. and 5% CO2, […] of 0.01 mCi/ml tritiated thymidine (New England Nuclear) was added to each well and allowed to incubate for another 4 hours under the same conditions.
Supernatant was aspirated and discarded and […] of 0.05% trypsin (Gibco) was added to each cell. Cells were checked microscopically to determine detachment from surfaces and then harvested onto glass filters. The filters were then placed in vials to which scintillant was added and counted for one minute each in a scintillation counter.
Determine mean cpm of wells containing test agent (n=4) or KGM control (n=16). Calculate % of control by the formula: [formula]
The IC50, or connection necessary to inhibit 50% of control, of each test agent was determined by plotting % control vs log concentration for each dilution and then linear forecasting the 50% control value onto the X axis on a Quatro Pro computer program. Only regression values with a correlation coefficient greater than 0.9 were considered acceptable.

PKC isoenzyme ζ = target: T6, PKC isoenzyme ζ (Homo sapiens, UniProt Q05513); assay: Protein kinase C inhibition assay, PKC isoenzyme ζ; assay type: biochemical; details: read-out: IC50 PKC .zeta.
T6 construct: made in house; host or cells: baculovirus-insect cell expression system
T6 sequence (Q05513 1-592): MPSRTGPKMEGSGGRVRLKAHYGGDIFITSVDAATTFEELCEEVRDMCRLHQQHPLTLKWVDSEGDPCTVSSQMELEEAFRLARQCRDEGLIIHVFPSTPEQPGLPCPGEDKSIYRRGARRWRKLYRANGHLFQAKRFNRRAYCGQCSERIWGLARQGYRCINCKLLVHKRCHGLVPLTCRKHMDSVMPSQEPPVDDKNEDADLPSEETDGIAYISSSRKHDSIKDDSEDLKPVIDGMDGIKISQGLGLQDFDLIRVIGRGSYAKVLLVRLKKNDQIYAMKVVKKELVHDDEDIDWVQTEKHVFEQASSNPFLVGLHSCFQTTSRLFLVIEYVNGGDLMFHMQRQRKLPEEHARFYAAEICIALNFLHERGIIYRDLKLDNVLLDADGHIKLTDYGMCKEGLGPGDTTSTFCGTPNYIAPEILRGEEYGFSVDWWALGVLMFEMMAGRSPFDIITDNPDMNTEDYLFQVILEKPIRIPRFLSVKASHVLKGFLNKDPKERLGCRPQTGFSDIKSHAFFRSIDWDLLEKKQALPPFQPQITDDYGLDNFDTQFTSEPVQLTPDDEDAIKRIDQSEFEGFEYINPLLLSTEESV
Experimental: as §1, §2, §3, §4

T4 sequence (Q05655 whole entry): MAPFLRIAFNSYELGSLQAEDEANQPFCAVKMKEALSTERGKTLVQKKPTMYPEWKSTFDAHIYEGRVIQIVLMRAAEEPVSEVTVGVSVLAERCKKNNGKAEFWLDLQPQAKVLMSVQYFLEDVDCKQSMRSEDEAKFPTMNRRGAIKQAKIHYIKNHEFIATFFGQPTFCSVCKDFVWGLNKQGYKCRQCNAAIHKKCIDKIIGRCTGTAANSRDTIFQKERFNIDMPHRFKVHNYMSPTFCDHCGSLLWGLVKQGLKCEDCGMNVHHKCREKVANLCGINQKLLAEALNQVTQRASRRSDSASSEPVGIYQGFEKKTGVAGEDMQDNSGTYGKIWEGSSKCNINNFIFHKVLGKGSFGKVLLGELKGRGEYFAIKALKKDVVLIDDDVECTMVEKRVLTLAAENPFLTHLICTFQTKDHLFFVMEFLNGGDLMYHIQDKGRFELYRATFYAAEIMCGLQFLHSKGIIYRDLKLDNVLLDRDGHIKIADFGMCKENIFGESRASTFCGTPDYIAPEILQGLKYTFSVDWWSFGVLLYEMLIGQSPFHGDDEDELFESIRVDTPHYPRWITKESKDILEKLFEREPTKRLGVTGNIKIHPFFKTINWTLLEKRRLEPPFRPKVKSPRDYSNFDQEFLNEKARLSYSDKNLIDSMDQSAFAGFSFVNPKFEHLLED
T2 sequence (P05771 1-673 isoform P05771-2): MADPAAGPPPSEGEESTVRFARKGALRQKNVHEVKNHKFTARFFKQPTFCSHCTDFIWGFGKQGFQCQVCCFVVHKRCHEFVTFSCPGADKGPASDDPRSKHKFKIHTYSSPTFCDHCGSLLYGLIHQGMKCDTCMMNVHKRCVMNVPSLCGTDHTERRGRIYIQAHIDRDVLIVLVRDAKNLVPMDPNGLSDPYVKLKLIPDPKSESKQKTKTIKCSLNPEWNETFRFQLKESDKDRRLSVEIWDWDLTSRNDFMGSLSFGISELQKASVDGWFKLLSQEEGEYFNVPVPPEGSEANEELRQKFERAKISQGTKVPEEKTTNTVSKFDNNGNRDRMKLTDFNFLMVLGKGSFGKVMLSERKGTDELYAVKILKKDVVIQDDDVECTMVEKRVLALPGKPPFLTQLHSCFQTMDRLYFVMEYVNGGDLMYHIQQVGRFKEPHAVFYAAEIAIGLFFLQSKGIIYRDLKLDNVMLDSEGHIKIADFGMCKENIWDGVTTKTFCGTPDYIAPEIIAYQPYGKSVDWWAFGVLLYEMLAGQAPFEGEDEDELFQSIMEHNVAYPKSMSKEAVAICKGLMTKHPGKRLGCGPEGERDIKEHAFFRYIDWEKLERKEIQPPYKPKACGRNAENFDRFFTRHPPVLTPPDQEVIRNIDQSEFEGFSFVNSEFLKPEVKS

SMILES: Cc1noc(NS(=O)(=O)c2ccc(N=C3C=C(Nc4ccc(S(=O)(=O)Nc5onc(C)c5C)cc4)C(=O)c4ccccc43)cc2)c1C [Compound 6b]
- IC50 (PKC isoenzyme α): 35 µM
- IC50 (PKC isoenzyme βII): 50 µM
- IC50 (PKC isoenzyme γ): 29 µM
- IC50 (PKC isoenzyme δ): 39 µM
- IC50 (PKC isoenzyme ε): > 150 µM
- IC50 ([1]; catalytic subunit of PKA): > 150 µM
- effect on PKA activity ([1]; result in words): did not effect on PKA activity
- IC50 [2]: 16.7 µM

SMILES: N=C(N)NS(=O)(=O)c1ccc(N=C2C=C(Nc3ccc(S(=O)(=O)NC(=N)N)cc3)C(=O)c3ccccc32)cc1 [Compound 3ab]
- IC50 (PKC isoenzyme α): 125 µM
- IC50 (PKC isoenzyme βII): > 150 µM
- IC50 (PKC isoenzyme γ): 76 µM
- IC50 (PKC isoenzyme δ): > 150 µM
- IC50 (PKC isoenzyme ε): > 150 µM
- IC50 (PKC isoenzyme ζ): > 150 µM

SMILES: CCCCCCCCCCCCCCCCNS(=O)(=O)c1ccc(N=C2C=C(Nc3ccc(S(=O)(=O)NCCCCCCCCCCCCCCCC)cc3)C(=O)c3ccccc32)cc1 [Compound 6o]
- IC50 (PKC isoenzyme α): 100 µM
- IC50 (PKC isoenzyme βII): 99 µM
- IC50 (PKC isoenzyme γ): 94 µM
- IC50 (PKC isoenzyme δ): 102 µM
- IC50 (PKC isoenzyme ζ): > 150 µM
